Test results published in a melting point compilation (Tetko et al.; mined from patent text by program, amines drawn as free bases though some values may be those of a salt).

| SMILES | melting point [°C] |
| --- | --- |
| CC(C)Cc1cc(OCC(=O)N(C)C)c2[nH]nc(Nc3nccs3)c2c1 | 96 to 98 |
| CCOC(=O)C(=Cc1ccccc1)c1csc(N)n1 | 162 |
| CC(C)(c1ccccc1)n1nnc(-c2ccccc2)n1 | 44 to 46 |
| CC(C)Oc1c(Br)c(Br)n(Cc2ccccc2)c1C(=O)Nc1nnn[nH]1 | 199 to 205 |
| COc1cc(OC)nc(Sc2c(NS(=O)(=O)CC#N)nc(C)n2C)n1 | 223 to 225 |
| CCOC(=O)Cn1c(=O)n(-c2ccccc2Cl)c(=O)c2c(C)c(C(=O)OCC)c(C)cc21 | 158 to 159 |
| O=C(O)C(Cl)=C(Cl)C(=O)c1ccccc1 | 228 |
| CCOC(=O)c1cn(C2CC2)c2c(F)c(F)c(Cl)cc2c1=O | 169 to 172 |
| COc1ccc(C(C)(C)c2cc(C(C)(C)C)cc(-n3nc4ccc(C(F)(F)F)cc4n3)c2O)cc1 | 140 |
| CN(C)CCC(c1ccc(C(=O)NN)cc1)c1ncc[nH]1 (stereo unspecified) | 168 to 170 |
| Cc1c(C)c2c(c(Cl)c1C=O)CC(C)(C)C2 | 108 |
| O=C(O)c1ccc(Cn2cc(C3c4ccc(C(F)(F)F)cc4C=Cc4cc(C(F)(F)F)ccc43)c(=S)[nH]c2=O)o1 | 159 to 162 |
| Cc1ccc2c(N=[N+]=[N-])c(C(=O)O)cnc2n1 | 198 |
| CCOC(=O)C1COc2c(C=O)cc(Cl)c(Cl)c2O1 (stereo unspecified) | 110 to 113 |
| O=C(CCCCCNC(=O)[C@H](Cc1c[nH]c2ccccc12)NC(=O)CCCc1c[nH]c2ccccc12)NO | 94 to 96 |
| Clc1ccc(-n2nc(C3CC3)cc2C2CC2)nn1 | 102 to 105 |
| CCCCCC1=C(c2ccc(F)cc2)C(=NO)CC1 | 101 to 102 |
| CN(CCOc1ccc(CC(Oc2ccc3ccccc3c2)C(=O)O)cc1)c1nc2ccccc2o1 (stereo unspecified) | 162 to 164 |
| CCCc1nc(S)nn1-c1ccccc1 | 142 to 143 |
| CC(C)(C)c1ccc([C@@H]2C[C@H]3C=C(c4c[nH]c(-c5ccc(F)cc5)c4-c4ccncc4)CCN3C2)cc1 | 226 to 228 |
| Oc1ccc(-c2ncnc(C(F)(F)F)c2Cl)cc1 | 149 to 151 |

| SMILES | melting point [°C] |
| --- | --- |
| COc1c(Cl)ccc(-c2cc(N)c(Cl)c(C(=O)NOC/C=C/Cl)n2)c1F | 163 to 165 |
| CCC1(C)CC2(NC(=O)N(C)C2=O)C(C)C(C)(CC)N1C (stereo unspecified) | 190 to 195 |
| O=[N+]([O-])c1ccc(CN2CCNS2(=O)=O)cc1 | 115 to 117 |
| c1cncc(-c2noc(-c3ccco3)n2)c1 | 110 to 114 |
| CC(C)(C)OC(=O)N[C@@H](CC(=O)O)C(=O)OC(C)(C)C | 97 to 99 |
| Clc1nc(-n2cccn2)ncc1Cc1ccccc1 | 149 to 151 |
| O=C1c2ccccc2CCn2cc(SC(F)(F)F)cc21 | 77 to 78 |
| O=C1N(C/C=C/C=C/c2ccccc2Cl)CCN1c1cccnc1 | 130 to 133 |
| CCOC1=C(CCCCCCC(=O)O)C(=O)CC1 | 65 to 66 |
| Oc1c(Cc2ccccc2)nc(Cc2ccccc2)c2c1COC2 | 204 to 205 |
| CCCCNC(=O)[C@@H](C[C@H](O)[C@H](CC1CCCCC1)NC(=O)OC(C)(C)C)C(C)(C)O | 91 to 93 |
| COc1nc2cc(Cl)ccc2c(=O)c2sccc12 | 195 to 197 |
| CC12CC(=O)C3C(CCC4CC(O)CCC43C)C1CCC2C(=O)CCc1ccccn1 (stereo unspecified) | 179 to 180 |
| CCC12CCC3C4CCCC=C4CCC3C1CCC2O (stereo unspecified) | 118 to 120 |
| Cc1ccc2nc(-c3ccccc3)c(-c3ccccc3)nc2c1 | 114 to 116 |
| Nc1nc2c(s1)CCN(CC=Cc1ccsc1)CC2 | 128 to 132 |
| CN(C)c1nc(N)nc2nc[nH]c12 | 254 to 256 |
| CC(C)C(=O)Nc1ccc(N)c(C(F)(F)F)c1 | 114 to 116 |
| CCCc1nc(Cl)c(C(=O)O)n1Cc1ccc(C2(C(=O)OCC)CC=CC2)s1 | 114 to 115 |
| Cn1nc2c(-c3ccc(Cl)cc3Cl)cccc2c1C(=O)c1ncn[nH]1 | 284 to 285 |
| c1c2c(nc3c1CCCCC3)CCCCC2 | 179 |

Now from value to compound:

| melting point [°C] | SMILES |
| --- | --- |
| 98 | COc1ccc2cc([C@H](C)C(=O)OCC3(CO[N+](=O)[O-])COCOC3)ccc2c1 |
| 172 to 173 | CCOc1ccc(C(=O)CN2CCOCC2)cc1-c1nc2c(C)cccc2c(=O)[nH]1 |
| 73.6 to 73.9 | CCOC(=O)CCCCCOc1ccc(-c2nc(=O)c3ccccc3s2)cn1 |
| 178 to 179 | O=C(c1cc(Cl)c(Cl)cc1NS(=O)(=O)c1cccc2nsnc12)N1CCCCC1 |
| 101 to 102 | C=CCc1c(OC)c(C)c2c(c1OC(C)=O)C(=O)OC2 |
| 214 | COC(=O)c1cc(C(=O)c2c(C)c(OC)c3c(OCc4ccccc4)cccn23)ccc1NC(=O)C(F)(F)F |
| 153 to 155 | Nc1ccc(C2=NN3CCCC3Cc3cc4c(cc32)OCO4)cc1 (stereo unspecified) |
| 170 to 172 | O=C1NCCN1c1ccc(F)cc1N1CCN(C/C=C/c2ccc(Cl)cc2)CC1 |
| 154 | COC(=O)c1nc(S)n(C(c2ccccc2)c2ccccc2)c1C(=O)OC |
| 168 to 170 | N#CC(=C1CCCN1)c1ccc(-c2ccccc2)cc1 |
| 160 | CC(Cc1cc(-c2ccccc2)nc2ccccc12)C(=O)N(C)C1CCCCC1 (stereo unspecified) |
| 188 to 190 | CN(Cc1cccc2c1C(=O)N(C1CCC(=O)NC1=O)C2=O)C(=O)NC(C)(C)C (stereo unspecified) |
| 173 to 177 | COCCCOc1ccc(-c2nc(C(=O)Nc3nccs3)c(-c3ccc(Cl)cc3)[nH]2)cc1 |
| 191 to 195 | COc1cc2c(cc1OC)C(C)=[N+]([O-])C(c1ccco1)N2 (stereo unspecified) |
| 268 to 269 | CC(CC#N)(C(=O)NCC#N)c1ccc(C(=O)Nc2cn3cc(Cl)ccc3n2)cc1 (stereo unspecified) |
| 137 to 140 | COC(=O)CCC(=O)c1ccc(-c2ccc(SC)cc2)cc1 |
| 147 to 150 | CCCCCCCCCCOc1ccc(C(=O)c2cccc(C(=O)O)c2)cc1Cc1nnn[nH]1 |
| 146 | Cc1cc(F)c(NS(=O)(=O)c2ccccc2)cc1NS(=O)(=O)c1ccccc1 |
| > 300 | Cc1ccc2sc3ncc(C(=O)Nc4nnn[nH]4)c(=O)n3c2c1 |
| 104 to 106 | CCCN1CCC(n2nc(-c3c(-c4ccccc4)nn4ccccc34)ccc2=O)CC1 |
| 208 to 209 | COc1ccc(-c2nc(N3CCN(C)CC3)c3c(C)c(C#N)sc3n2)cc1OC |
| 120 to 122 | N#Cc1ccc([C@H]2CC[C@H](O)CC2)cc1 |
| 175 to 177 | CCCCCC(CC(=O)Nc1cc(C(N)=O)ccc1C(C)(C)C)c1ccc(C)cc1OC (stereo unspecified) |
| 63 to 64 | COc1ccc(C2(C#Cc3cccc(NC(C)=O)c3)CCC(=O)CC2)cc1OC1CCCC1 |
| 155 to 156 | CCOC(=O)C(O)c1ccccc1Nc1c(Cl)cccc1Cl (stereo unspecified) |
| 175 to 176 | Cc1cc(Cl)ccc1OCC(=O)N1Cc2ccc(C(=O)c3ccc(Cl)cc3)n2Cc2ccccc21 |
| 146 to 151 | CC(C)NCc1ccc(Cn2ccc(OCc3ccc(F)cc3F)c(Cl)c2=O)cc1 |
| 113 to 114 | CCn1cc(-c2cccc(Cl)c2)c(=O)n1-c1cccc(C(F)(F)F)c1 |
| 150 to 153 | C[C@H](Nc1nc(Nc2cccc(NS(C)(=O)=O)c2)nc2[nH]cnc12)C(C)(C)C |
